These results are taken from PubChem BioAssay AID280 (DTP/NCI, 2004).

This test deals with nude mice, LOX melanoma ip, survival T/C. The test can be described thus: NCI In Vivo Anticancer Drug Screen. Data for tumor model Human Amelanotic Melanoma (LOX) (intraperitoneal) in NU/NU BALB/C (nude) mice. The settings on record: endpoint: median survival time, higher = longer survival. The procedure: The antitumor activity of compounds was measured in mice bearing transplantable tumors. Survival or tumor size were measured and the results are expressed as the measurement made in the treated group (T) divided by the measurement made in the vehicle treated control group (C). The tumor model used in this assay is Human Amelanotic Melanoma (LOX) (intraperitoneal) in NU/NU BALB/C (nude) mice

The mark [1] stands for this setting: dose: 50.0 mg/kg/injection, schedule: Q04DX003 (ip), vehicle: saline.
Where [2] appears, read: dose: 12.5 mg/kg/injection, schedule: Q04DX003 (ip), vehicle: saline with Tween-80.
[3] abbreviates: dose: 25.0 mg/kg/injection, schedule: Q04DX003 (ip), vehicle: saline with Tween-80.
[4] abbreviates: dose: 50.0 mg/kg/injection, schedule: Q04DX003 (ip), vehicle: saline with Tween-80.
The mark [5] stands for this setting: dose: 100.0 mg/kg/injection, schedule: Q04DX003 (ip), vehicle: saline with Tween-80.
Where [6] appears, read: dose: 200.0 mg/kg/injection, schedule: Q04DX003 (ip), vehicle: saline with Tween-80.

Values joined by “and” are separate entries in the source; they are usually repeats but may differ in a detail not shown here. Identical values can stand only once. Toxic doses and inconclusive results are not listed. Starred links: 1 amine or outer side, 2 acyl side, 3 side chain; linkers in the order of their positions; H or OH if unused. Positions of bridges follow the written chain, without caps; N, C: chain ends. Non-standard residues stand in square brackets, D forms with d. Residues, ends and D or L forms follow the SMILES beside them. Chains are numbered I, II in the order given. Actinocin(9to1) = Cc1c2oc3c(C)ccc(C(=O)[*:1])c3nc-2c(C(=O)[*:2])c(N)c1=O; aThr = C[C@H](O)[C@H](N)C(=O)O; NMeV = CN[C@H](C(=O)O)C(C)C; Sar = CNCC(=O)O

As to `Cc1c2oc3c(C)ccc(C(=O)N[C@@H]4C(=O)N[C@H](C(C)C)C(=O)N5CCC[C@H]5C(=O)N(C)CC(=O)N(C)[C@@H](C(C)C)C(=O)O[C@H]4C)c3nc-2c(C(=O)N[C@@H]2C(=O)N[C@H](C(C)C)C(=O)N3CCC[C@H]3C(=O)N(C)CC(=O)N(C)[C@@H](C(C)C)C(=O)O[C@H]2C)c(N)c1=O` (I: [aThr][dV]P[Sar][NMeV] / II: [aThr][dV]P[Sar][NMeV]; ester I:1-I:C, II:1-II:C; linker I:N-II:N via Actinocin(9to1)), the T/C by setting is: (dose: 0.07 mg/kg/injection, schedule: Q04DX003 (ip), vehicle: saline) 185 % of control; (dose: 0.13 mg/kg/injection, schedule: Q01DX001 (ip), vehicle: saline) 151 % of control; (dose: 0.13 mg/kg/injection, schedule: Q04DX003 (ip), vehicle: saline) 269 % of control; (dose: 0.25 mg/kg/injection, schedule: Q01DX001 (ip), vehicle: saline) 153 % of control; (dose: 0.25 mg/kg/injection, schedule: Q04DX003 (ip), vehicle: saline) 337 % of control; (dose: 0.5 mg/kg/injection, schedule: Q01DX001 (ip), vehicle: saline) 264 % of control. Further, the T/C is 337 % of control (dose: 0.5 mg/kg/injection, schedule: Q04DX003 (ip), vehicle: saline); 337 % of control (dose: 1.0 mg/kg/injection, schedule: Q01DX001 (ip), vehicle: saline); 87 % of control (dose: 1.3 mg/kg/injection, schedule: Q04DX003 (ip), vehicle: saline); 162 % of control (dose: 0.13 micrograms/kg/injection, schedule: Q01DX005 (ip), vehicle: saline); 207 % of control (dose: 0.13 micrograms/kg/injection, schedule: Q01DX015 (ip), vehicle: saline); 191 % of control (dose: 25.0 micrograms/kg/injection, schedule: Q01DX005 (ip), vehicle: saline). In addition, the T/C (dose: 25.0 micrograms/kg/injection, schedule: Q01DX015 (ip), vehicle: saline) was 337 % of control; the T/C (dose: 50.0 micrograms/kg/injection, schedule: Q01DX005 (ip), vehicle: saline) was 337 % of control; the T/C (dose: 50.0 micrograms/kg/injection, schedule: Q01DX015 (ip), vehicle: saline) is 337 % of control; the T/C (dose: 100.0 micrograms/kg/injection, schedule: Q01DX005 (ip), vehicle: saline) is 337 % of control; the T/C (dose: 100.0 micrograms/kg/injection, schedule: Q01DX015 (ip), vehicle: saline) was 337 % of control.
Take `CCCCNP1(NCCCC)=NP(NCCCC)(NCCCC)=NP(NCCCC)(NCCCC)=NP(NCCCC)(NCCCC)=N1`: the T/C (dose: 32.4 mg/kg/injection, schedule: Q04DX003 (ip), vehicle: saline with Tween-80) was 116 % of control; the T/C (dose: 54.0 mg/kg/injection, schedule: Q04DX003 (ip), vehicle: saline with Tween-80) is 105 % of control and 98 % of control; the T/C (dose: 75.0 mg/kg/injection, schedule: Q04DX003 (ip), vehicle: saline with Tween-80) is 113 % of control; the T/C (dose: 90.0 mg/kg/injection, schedule: Q04DX003 (ip), vehicle: saline with Tween-80) was 105 % of control and 120 % of control.
With `O=C(O)C1CC(O)CN1` (stereo not given), the T/C is, setting by setting: (dose: 75.0 mg/kg/injection, schedule: Q04DX003 (ip), vehicle: saline) 108 % of control; (dose: 300.0 mg/kg/injection, schedule: Q04DX003 (ip), vehicle: saline) 112 % of control; (dose: 600.0 mg/kg/injection, schedule: Q04DX003 (ip), vehicle: saline) 107 % of control; (dose: 1200.0 mg/kg/injection, schedule: Q04DX003 (ip), vehicle: saline) 114 % of control.
Regarding `CN1COc2c(n(C)c(=O)[nH]c2=O)C1`, the T/C is 96 % of control under setting [1]; 102 % of control (dose: 50.0 mg/kg/injection, schedule: Q04DX003 (ip), vehicle: suspension in saline); 91 % of control (dose: 100.0 mg/kg/injection, schedule: Q04DX003 (ip), vehicle: saline); 104 % of control (dose: 100.0 mg/kg/injection, schedule: Q04DX003 (ip), vehicle: suspension in saline); 104 % of control (dose: 200.0 mg/kg/injection, schedule: Q04DX003 (ip), vehicle: saline); 122 % of control (dose: 200.0 mg/kg/injection, schedule: Q04DX003 (ip), vehicle: suspension in saline). Further, the T/C is, setting by setting: (dose: 400.0 mg/kg/injection, schedule: Q04DX003 (ip), vehicle: saline) 110 % of control; (dose: 400.0 mg/kg/injection, schedule: Q04DX003 (ip), vehicle: suspension in saline) 108 % of control; (dose: 800.0 mg/kg/injection, schedule: Q04DX003 (ip), vehicle: saline) 120 % of control; (dose: 800.0 mg/kg/injection, schedule: Q04DX003 (ip), vehicle: suspension in saline) 108 % of control.
For the compound `Nc1nc(Br)nc2c1ncn2C1CC(O)C(CO)O1` (stereo not given), the T/C under setting [2] is 99 % of control; the T/C under setting [3] was 106 % of control; the T/C under setting [4] is 104 % of control; the T/C under setting [5] was 104 % of control; the T/C under setting [6] was 93 % of control.
On to `CS(=O)(=O)CS(=O)(=O)OCCF`, for which the T/C runs as follows: (dose: 3.13 mg/kg/injection, schedule: Q04DX003 (ip), vehicle: saline) 152 % of control; (dose: 6.25 mg/kg/injection, schedule: Q04DX003 (ip), vehicle: saline) 295 % of control; (dose: 12.5 mg/kg/injection, schedule: Q04DX003 (ip), vehicle: saline) 295 % of control; (dose: 25.0 mg/kg/injection, schedule: Q04DX003 (ip), vehicle: saline) 295 % of control; under setting [1], 295 % of control.
As for `O=C1CNC(=O)N1CN1CCOCC1`, the T/C (dose: 150.0 mg/kg/injection, schedule: Q04DX003 (ip), vehicle: Klucel (hydroxypropylcellulose) (HPC)) was 177 % of control and the T/C (dose: 600.0 mg/kg/injection, schedule: Q04DX003 (ip), vehicle: Klucel (hydroxypropylcellulose) (HPC)) is 152 % of control.
For the compound `Oc1cccc2ccccc12`, the T/C by setting is: (dose: 18.75 mg/kg/injection, schedule: Q04DX003 (ip), vehicle: water) 98 % of control; (dose: 37.5 mg/kg/injection, schedule: Q04DX003 (ip), vehicle: water) 102 % of control; (dose: 75.0 mg/kg/injection, schedule: Q04DX003 (ip), vehicle: water) 106 % of control; (dose: 150.0 mg/kg/injection, schedule: Q04DX003 (ip), vehicle: water) 102 % of control.
Regarding `CN1C2C=CC(=O)C1C1C(=O)N(c3ccccc3)C(=O)C12` (stereo not given), the T/C runs as follows: (dose: 50.0 mg/kg/injection, schedule: Q04DX003 (ip), vehicle: Klucel (hydroxypropylcellulose) (HPC)) 100 % of control; (dose: 100.0 mg/kg/injection, schedule: Q04DX003 (ip), vehicle: Klucel (hydroxypropylcellulose) (HPC)) 96 % of control; (dose: 200.0 mg/kg/injection, schedule: Q04DX003 (ip), vehicle: Klucel (hydroxypropylcellulose) (HPC)) 99 % of control; (dose: 400.0 mg/kg/injection, schedule: Q04DX003 (ip), vehicle: Klucel (hydroxypropylcellulose) (HPC)) 100 % of control.
As for `CNC(=O)c1cccc2c(Nc3ccc(NS(C)(=O)=O)cc3OC)c3cccc(C)c3nc12`, the T/C is, setting by setting: (dose: 6.25 mg/kg/injection, schedule: Q04DX003 (ip), vehicle: suspension in saline) 121 % of control; (dose: 15.0 mg/kg/injection, schedule: Q04DX003 (ip), vehicle: suspension in saline) 158 % of control; (dose: 25.0 mg/kg/injection, schedule: Q04DX003 (ip), vehicle: suspension in saline) 178 % of control; (dose: 41.66 mg/kg/injection, schedule: Q04DX003 (ip), vehicle: suspension in saline) 170 % of control; (dose: 69.44 mg/kg/injection, schedule: Q04DX003 (ip), vehicle: suspension in saline) 161 % of control.
As to `COc1ccc(O)cc1`, the T/C under setting [5] is 124 % of control and the T/C under setting [6] is 102 % of control.
`CC(=O)C[n+]1ccc(C)cc1Sc1ccccc1C`: the T/C was 93 % of control under setting [2], 99 % of control under setting [3], 95 % of control under setting [4] and 88 % of control under setting [5].
For the compound `O=C(Nc1cccc(O)c1)C(Cl)=C(Cl)Cl`, the T/C runs as follows: (dose: 6.25 mg/kg/injection, schedule: Q04DX003 (ip), vehicle: DMSO) 96 % of control; (dose: 12.5 mg/kg/injection, schedule: Q04DX003 (ip), vehicle: DMSO) 91 % of control; (dose: 25.0 mg/kg/injection, schedule: Q04DX003 (ip), vehicle: DMSO) 95 % of control; (dose: 50.0 mg/kg/injection, schedule: Q04DX003 (ip), vehicle: DMSO) 94 % of control.
